The values below come from patent publication US20240336608A1, “IL4I1 INHIBITORS AND METHODS OF USE” (Merck Sharp & Dohme LLC, priority 2023, published 2024).

pEC50: −log10 of the molar value.

The experiment has as its target T1, recombinant IL4I1 (Homo sapiens, UniProt Q96RQ9).
T1 construct: purchased R&D Systems 5684-AO-020
T1 sequence (Q96RQ9 22-567): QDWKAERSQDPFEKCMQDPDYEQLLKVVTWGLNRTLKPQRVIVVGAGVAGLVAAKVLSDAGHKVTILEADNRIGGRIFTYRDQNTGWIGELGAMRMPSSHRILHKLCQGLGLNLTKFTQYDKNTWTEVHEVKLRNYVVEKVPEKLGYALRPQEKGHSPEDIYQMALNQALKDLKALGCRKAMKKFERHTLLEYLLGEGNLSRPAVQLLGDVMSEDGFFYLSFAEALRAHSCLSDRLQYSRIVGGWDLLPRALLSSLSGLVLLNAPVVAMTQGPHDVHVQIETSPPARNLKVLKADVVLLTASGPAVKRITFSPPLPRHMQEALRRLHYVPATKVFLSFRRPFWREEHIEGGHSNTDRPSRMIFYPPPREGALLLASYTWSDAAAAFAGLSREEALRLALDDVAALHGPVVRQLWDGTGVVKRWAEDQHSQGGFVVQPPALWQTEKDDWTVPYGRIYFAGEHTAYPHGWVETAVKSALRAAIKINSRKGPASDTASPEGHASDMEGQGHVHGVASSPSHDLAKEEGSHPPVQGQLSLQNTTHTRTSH
The experiment is described as follows: IL4I1 Enzymatic Assay (Amplex Red/HRP coupled detection of H2O2, fluorescence). It is filed as biochemical. The note with it: 1 nM recombinant IL4I1; four-hour pre-incubation with compound; 1 mM each Phe, Tyr, Trp; ten-point titration. A digest of the protocol:
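H2O2 output was coupled to resorufin fluorescence (ex 544/em 590) via 0.05 mM Amplex Red and 1 U/mL HRP. Substrate: Phe, Tyr, Trp at 1 mM each; enzyme 1 nM, 4 h compound pre-incubation, 120 min reaction, pH 7.0 Hepes. EC50 by nonlinear four-parameter regression, 1:3 ten-point titration.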
As a reminder, the pEC50 is −log10 of the EC50, conventionally taken in molar units. As for `O=C(NCc1nnc(-c2ccccc2)s1)c1cn(C2CCOC2)nn1` (stereo not shown) [Example 305, N-((5-phenyl-1,3,4-thiadiazol-2-yl)methyl)-1-(tetrahydrofuran-3-yl)-1H-1,2,3-triazole-4-carboxamide], the pEC50 is 7.54.
Consider `O=C(NCc1nnc(-c2ccccc2)s1)c1cnnn1C1CCOC1` (stereo not shown) [Example 306, N-((5-phenyl-1,3,4-thiadiazol-2-yl)methyl)-1-(tetrahydrofuran-3-yl)-1H-1,2,3-triazole-5-carboxamide], for which the pEC50 was 6.18.
On to `O=C(NCc1nnc(-c2ccccc2)s1)c1cn(C2CS(=O)(=O)C2)nn1` [Example 307, 1-(1,1-dioxidothietan-3-yl)-N-((5-phenyl-1,3,4-thiadiazol-2-yl)methyl)-1H-1,2,3-triazole-4-carboxamide], for which the pEC50 was 7.14.
With `CS(=O)(=O)Cn1cc(C(=O)NCc2nnc(-c3ccccc3)s2)nn1` [Example 308, 1-((methylsulfonyl)methyl)-N-((5-phenyl-1,3,4-thiadiazol-2-yl)methyl)-1H-1,2,3-triazole-4-carboxamide], the negative-log EC50 (pEC50) was 7.12.
On to `O=C(NCc1nnc(-c2ccccc2)s1)c1cn(-c2ccncn2)nn1` [Example 309, N-((5-phenyl-1,3,4-thiadiazol-2-yl)methyl)-1-(pyrimidin-4-yl)-1H-1,2,3-triazole-4-carboxamide], for which the pEC50 was 6.14.
As for `O=C(NCc1nnc(-c2ccccc2)s1)c1cn(-c2ccccn2)nn1` [Example 310, N-((5-phenyl-1,3,4-thiadiazol-2-yl)methyl)-1-(pyridin-2-yl)-1H-1,2,3-triazole-4-carboxamide], the pEC50 was 6.74.
In the case of `O=C(NCc1nnc(-c2ccccc2)s1)c1cn(-c2cnccn2)nn1` [Example 311, N-((5-phenyl-1,3,4-thiadiazol-2-yl)methyl)-1-(pyrazin-2-yl)-1H-1,2,3-triazole-4-carboxamide], the pEC50 is 6.53.
`CC(C)(C(N)=O)n1cc(C(=O)NCc2nnc(-c3ccccc3)s2)nn1` [Example 312, 1-(1-amino-2-methyl-1-oxopropan-2-yl)-N-((5-phenyl-1,3,4-thiadiazol-2-yl)methyl)-1H-1,2,3-triazole-4-carboxamide]: the pEC50 was 7.92.
Consider `CC(C)(C#N)n1cc(C(=O)NCc2nnc(-c3ccccc3)s2)nn1` [Example 313, 1-(2-cyanopropan-2-yl)-N-((5-phenyl-1,3,4-thiadiazol-2-yl)methyl)-1H-1,2,3-triazole-4-carboxamide], for which the pEC50 was 7.59.
For `Cc1ccc(-n2cc(C(=O)NCc3cc(-c4ccncc4)no3)nn2)c(C)n1` [Example 314, 1-(2,6-dimethylpyridin-3-yl)-N-((3-(pyridin-4-yl)isoxazol-5-yl)methyl)-1H-1,2,3-triazole-4-carboxamide], the pEC50 is 7.92.
For `Cc1ncccc1-n1cc(C(=O)NCc2nnc(-c3ccccc3)s2)nn1` [Example 315, 1-(2-methylpyridin-3-yl)-N-((5-phenyl-1,3,4-thiadiazol-2-yl)methyl)-1H-1,2,3-triazole-4-carboxamide], the pEC50 was 7.07.
For `O=C(NCc1nnc(-c2ccccc2)s1)c1cn(-c2cncnc2)nn1` [Example 316, N-((5-phenyl-1,3,4-thiadiazol-2-yl)methyl)-1-(pyrimidin-5-yl)-1H-1,2,3-triazole-4-carboxamide], the pEC50 is 6.62.
Consider `CC(C)(O)c1cc(C(=O)NCc2nnc(-c3ccccc3)s2)no1` [Example 317, 5-(2-hydroxypropan-2-yl)-N-((5-phenyl-1,3,4-thiadiazol-2-yl)methyl)isoxazole-3-carboxamide], for which the pEC50 is 7.68.
For `CC(C)(C(N)=O)n1cc(C(=O)NCc2nnc(-c3ccncc3)s2)nn1` [Example 320, 1-(1-amino-2-methyl-1-oxopropan-2-yl)-N-((5-(pyridin-4-yl)-1,3,4-thiadiazol-2-yl)methyl)-1H-1,2,3-triazole-4-carboxamide], the pEC50 is 7.57.
Next, `CNC(=O)C(C)(C)n1cc(C(=O)NCc2nnc(-c3ccncc3)s2)nn1` [Example 321, 1-(2-methyl-1-(methylamino)-1-oxopropan-2-yl)-N-((5-(pyridin-4-yl)-1,3,4-thiadiazol-2-yl)methyl)-1H-1,2,3-triazole-4-carboxamide]: 7.29; `CNC(=O)C(C)(C)n1cc(C(=O)NCc2nnc(-c3ccccc3)s2)nn1` [Example 322, 1-(2-methyl-1-(methylamino)-1-oxopropan-2-yl)-N-((5-phenyl-1,3,4-thiadiazol-2-yl)methyl)-1H-1,2,3-triazole-4-carboxamide]: 7.59.
The figure for `CC(C)(O)Cn1cc(C(=O)NCc2nnc(-c3ccccc3)s2)nn1` [Example 323, 1-(2-hydroxy-2-methylpropyl)-N-((5-phenyl-1,3,4-thiadiazol-2-yl)methyl)-1H-1,2,3-triazole-4-carboxamide] is 6.69.
The figure for `Cc1ccc(-n2cc(C(=O)NCc3nnc(C4CCCCC4)s3)nn2)c(C)n1` [Example 324, N-((5-cyclohexyl-1,3,4-thiadiazol-2-yl)methyl)-1-(2,6-dimethylpyridin-3-yl)-1H-1,2,3-triazole-4-carboxamide] is 6.56.
Consider `Cc1ccc(-n2cc(C(=O)NCc3nnc(C4CCCC4)s3)nn2)c(C)n1` [Example 325, N-((5-cyclopentyl-1,3,4-thiadiazol-2-yl)methyl)-1-(2,6-dimethylpyridin-3-yl)-1H-1,2,3-triazole-4-carboxamide], for which the pEC50 was 6.56.
As for `Cc1ccc(-n2cc(C(=O)NCc3ccc(C4CCCCC4)nn3)nn2)c(C)n1` [Example 326, N-((6-cyclohexylpyridazin-3-yl)methyl)-1-(2,6-dimethylpyridin-3-yl)-1H-1,2,3-triazole-4-carboxamide], the pEC50 was 6.58.
Next, `CC(C)(O)c1cc(C(=O)NCc2nnc(-c3ccccc3)s2)on1` [Example 328, 3-(2-hydroxypropan-2-yl)-N-((5-phenyl-1,3,4-thiadiazol-2-yl)methyl)isoxazole-5-carboxamide]: 6.51; `O=C(NCc1nnc(-c2ccccc2)s1)c1cn(CC(F)(F)C(=O)O)nn1` [Example 331, 2,2-difluoro-3-(4-(((5-phenyl-1,3,4-thiadiazol-2-yl)methyl)carbamoyl)-1H-1,2,3-triazol-1-yl)propanoic acid]: 6.42; `NC(=O)C(F)(F)Cn1cc(C(=O)NCc2nnc(-c3ccccc3)s2)nn1` [Example 332, 1-(3-amino-2,2-difluoro-3-oxopropyl)-N-((5-phenyl-1,3,4-thiadiazol-2-yl)methyl)-1H-1,2,3-triazole-4-carboxamide]: 8.10.
Take `Cc1nc(C(N)=O)ccc1-n1cc(C(=O)NCc2nnc(-c3ccccc3)s2)nn1` [Example 333, 6-methyl-5-(4-(((5-phenyl-1,3,4-thiadiazol-2-yl)methyl)carbamoyl)-1H-1,2,3-triazol-1-yl)picolinamide]: the pEC50 was 8.22.
For `Cc1nc(C(C)(C)O)ccc1-n1cc(C(=O)NCc2nnc(-c3ccccc3)s2)nn1` [Example 334, 1-(6-(2-hydroxypropan-2-yl)-2-methylpyridin-3-yl)-N-((5-phenyl-1,3,4-thiadiazol-2-yl)methyl)-1H-1,2,3-triazole-4-carboxamide], the pEC50 is 6.35.
